Results on one compound are retold here after patent US8937056B2, “Multikinase inhibitors for use in the treatment of cancer” (Eisai R&D Management Co., Ltd., priority 2007, dated 2015).

Data set [1] has as its system LOX human melanoma xenografts. Description: In vivo antitumor activity in LOX xenografts. On the set-up: species or system mice. As to the method: A study was carried out to investigate anticancer activity of compounds 091 and 106 in human LOX BRAF mutated melanoma xenografts. The compounds were evaluated against subcutaneous-implanted LOX human melanoma xenografts in female athymic mice.
The human melanoma cell line, LOX which has B-RAF (V600E) mutation was transplanted subcutaneously into female nude mice. The experiment consisted of 8 mice per group on the first day of treatment. Compounds were independently administered intravenously for two weekly rounds of five daily injections (q1d×5) with a two-day rest period between the rounds. Compounds were administered in a vehicle volume of 0.1 mL/10 g of body weight.
The general health of the mice was monitored daily. Tumor dimensions and body weights were recorded twice a week starting on the first day of treatment. Tumor weights were calculated using the equation (l×w^2)/2, where 1 and w refer to the larger and smaller dimensions collected at each measurement. When the mean tumor volume reached 128 mm^3, vehicle (cremophor:ethanol:5% glucose; 1:1:8) or one of the test compounds (10, 20, 30, or 40 mg/kg) was administered to mice (8/group).

A short description of data set [2]: Blood brain barrier penetration. To be noted: in vivo.
The target of data set [3] is Lyn (Homo sapiens, UniProt P07948). The data set is described as follows: Kinase inhibition, full range of concentrations. It counts as biochemical. To be noted: 10 μM ATP, duplicate measurements. As to the method:
(§1) In a final reaction volume of 25 μL, each human enzyme was incubated with appropriate buffer. The reaction was initiated by the addition of the MgATP mix with [γ^33P-ATP]. After incubation for 40 minutes at room temperature, the reaction was stopped by the addition of 5 μL of a phosphoric acid solution. All assays were performed at an ATP concentration of 10 μM.
(§2) 10 μL of the reaction was spotted onto a P30 filtermat and washed three times for 5 minutes in a phosphoric acid solution. ^33P transferred to a substrate peptide was then determined by scintillation counting. The results were expressed as a percentage of that in control incubations.
(§3) Furthermore, inhibitory activities of the compounds were confirmed against six of these kinases with a full range of concentrations. Three cytoplasmic Src family kinases were studied: c-Src, Fyn and Lyn. We also studied cytoplasmic Abl kinase and two receptor tyrosine kinases: Flt3, and TrkB. A standard ATP concentration of 10 μM was used in all reactions. All experiments were conducted with duplicate measurements. […] TrkB and members of the Src family were the most sensitive enzymes to Compound 091 inhibition.

Data set [4] deals with Fyn (Homo sapiens, UniProt P06241). Description: Kinase inhibition, full range of concentrations. In kind it is biochemical. To be noted: 10 μM ATP, duplicate measurements. As for the experimental part:
as §1, §2, §3

Data set [5] has as its target Abl kinase (Homo sapiens, UniProt P00519). The data set is described as follows: Kinase inhibition, full range of concentrations. In kind it is biochemical. The conditions noted are these: 10 μM ATP, duplicate measurements. As to the method: as §1, §2, §3
Data set [6] has as its target TrkB (Homo sapiens, UniProt Q16620). Description: Kinase inhibition, full range of concentrations. It counts as biochemical. To be noted: 10 μM ATP, duplicate measurements. As for the experimental part:
as §1, §2, §3

For data set [7], the target named is c-Src (Homo sapiens, UniProt P12931). The data set is described as follows: Kinase inhibition, full range of concentrations. It counts as biochemical. To be noted: 10 μM ATP, duplicate measurements. As to the method:
as §1, §2, §3

Data set [8] has as its target T1, Flt3 (Homo sapiens, UniProt P36888).
T1 sequence (P36888 27-993): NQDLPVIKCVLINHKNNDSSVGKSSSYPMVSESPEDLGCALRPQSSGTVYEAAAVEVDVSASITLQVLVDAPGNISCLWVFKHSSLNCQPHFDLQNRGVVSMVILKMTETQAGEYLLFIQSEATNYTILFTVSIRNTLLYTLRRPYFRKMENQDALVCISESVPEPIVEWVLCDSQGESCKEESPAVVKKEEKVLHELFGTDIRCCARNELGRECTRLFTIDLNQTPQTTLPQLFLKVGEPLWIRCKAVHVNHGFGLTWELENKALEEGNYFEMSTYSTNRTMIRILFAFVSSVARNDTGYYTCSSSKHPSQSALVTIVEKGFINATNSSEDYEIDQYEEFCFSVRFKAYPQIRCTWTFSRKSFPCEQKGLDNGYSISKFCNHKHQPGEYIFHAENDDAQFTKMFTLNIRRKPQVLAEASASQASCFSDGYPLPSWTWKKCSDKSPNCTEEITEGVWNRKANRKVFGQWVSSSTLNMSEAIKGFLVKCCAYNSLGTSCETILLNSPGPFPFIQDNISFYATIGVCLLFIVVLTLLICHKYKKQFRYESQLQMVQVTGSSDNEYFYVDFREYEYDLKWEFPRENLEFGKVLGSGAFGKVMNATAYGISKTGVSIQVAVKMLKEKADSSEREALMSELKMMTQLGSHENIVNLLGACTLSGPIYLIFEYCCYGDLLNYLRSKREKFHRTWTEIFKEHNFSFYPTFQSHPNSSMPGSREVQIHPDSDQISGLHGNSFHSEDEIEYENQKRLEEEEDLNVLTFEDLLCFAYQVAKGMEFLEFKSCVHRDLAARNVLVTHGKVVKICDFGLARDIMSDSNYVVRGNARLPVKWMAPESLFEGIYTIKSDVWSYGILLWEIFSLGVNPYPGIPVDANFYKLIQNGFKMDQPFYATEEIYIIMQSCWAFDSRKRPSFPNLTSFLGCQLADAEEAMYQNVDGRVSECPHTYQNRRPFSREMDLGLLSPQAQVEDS
The data set is described as follows: Kinase inhibition, full range of concentrations. In kind it is biochemical. To be noted: 10 μM ATP, duplicate measurements. As to the method:
as §1, §2, §3

Data set [9] addresses MEK1 (Homo sapiens, UniProt Q02750). The data set is described as follows: Biochemical MEK1 assay (ELISA, ERK2-coated plate). As to the method: A biochemical MEK1 assay was carried out to investigate whether compounds of formula (I) or (II), e.g., compounds 029, 091, 106 and 114 are MEK1 inhibitors. Biochemical MEK1 inhibition of the compounds was assessed using an ELISA assay. All assays were performed in a 96 well format. A plate coated with ERK2, a substrate protein for MEK1 was used for biochemical MEK1 assay. In a final volume of 40 μL, MEK1 (25 ng) was incubated with 50 mmol/L HEPES, 20 mmol/L MgCl2, 4 mmol/L MnCl2, and 0.5 mmol/L Na3VO4 in the absence or presence of the test compounds. The reaction was initiated by the addition of 1 μmol/L ATP. After incubation for 40 minutes at 30° C., the reaction mixture was discarded and the plate was then washed 4 times with 0.05% Tween20/PBS. Each well was incubated with 100 μL of 1:4000 diluted phospho-ERK1/2 monoclonal antibody (Cell Signaling, MA) for 1.5 hours at room temperature. The antibody was then discarded and the plate was washed 6 times with 0.05% Tween20/PBS. Finally, 100 μL of 1:2000 diluted of HRP conjugated anti-mouse IgG antibody (Cell Signaling, MA) was added. After incubation for 90 minutes, this antibody was discarded and the plate was washed 8 times with 0.05% Tween20/PBS. Phosphorylated ERK2 was then visualized by peroxidase reaction, and read at 450 nm. FIG. 2A is a table depicting results from MEK1 assays.
For orientation: An ELISA detects its analyte on a solid surface through an enzyme-linked reagent.

Sequence of MEK1 (Q02750 whole entry): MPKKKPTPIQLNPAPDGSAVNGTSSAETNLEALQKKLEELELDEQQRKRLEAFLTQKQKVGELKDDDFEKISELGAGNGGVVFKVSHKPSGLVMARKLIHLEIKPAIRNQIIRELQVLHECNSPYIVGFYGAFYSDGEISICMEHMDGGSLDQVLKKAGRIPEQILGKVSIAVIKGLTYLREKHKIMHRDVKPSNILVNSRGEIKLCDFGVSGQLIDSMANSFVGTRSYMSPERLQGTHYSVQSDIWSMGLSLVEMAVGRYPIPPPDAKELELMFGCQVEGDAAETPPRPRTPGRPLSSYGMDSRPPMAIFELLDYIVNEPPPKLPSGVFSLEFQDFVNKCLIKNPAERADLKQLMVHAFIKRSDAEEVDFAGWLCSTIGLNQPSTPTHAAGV
Sequence of Lyn (P07948 whole entry): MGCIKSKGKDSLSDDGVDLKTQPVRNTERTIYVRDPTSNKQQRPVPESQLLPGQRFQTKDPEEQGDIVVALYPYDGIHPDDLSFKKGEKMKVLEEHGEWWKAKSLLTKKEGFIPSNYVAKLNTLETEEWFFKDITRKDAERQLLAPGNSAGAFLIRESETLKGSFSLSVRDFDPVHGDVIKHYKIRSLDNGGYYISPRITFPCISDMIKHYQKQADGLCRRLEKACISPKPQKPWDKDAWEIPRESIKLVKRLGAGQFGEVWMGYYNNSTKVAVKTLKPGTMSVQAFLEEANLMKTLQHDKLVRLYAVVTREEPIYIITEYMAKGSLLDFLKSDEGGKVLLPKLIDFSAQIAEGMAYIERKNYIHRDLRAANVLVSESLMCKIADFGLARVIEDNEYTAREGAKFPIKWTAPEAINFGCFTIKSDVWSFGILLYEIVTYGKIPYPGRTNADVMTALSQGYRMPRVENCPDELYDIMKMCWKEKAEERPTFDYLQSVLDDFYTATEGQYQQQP
Sequence of Abl kinase (P00519 whole entry): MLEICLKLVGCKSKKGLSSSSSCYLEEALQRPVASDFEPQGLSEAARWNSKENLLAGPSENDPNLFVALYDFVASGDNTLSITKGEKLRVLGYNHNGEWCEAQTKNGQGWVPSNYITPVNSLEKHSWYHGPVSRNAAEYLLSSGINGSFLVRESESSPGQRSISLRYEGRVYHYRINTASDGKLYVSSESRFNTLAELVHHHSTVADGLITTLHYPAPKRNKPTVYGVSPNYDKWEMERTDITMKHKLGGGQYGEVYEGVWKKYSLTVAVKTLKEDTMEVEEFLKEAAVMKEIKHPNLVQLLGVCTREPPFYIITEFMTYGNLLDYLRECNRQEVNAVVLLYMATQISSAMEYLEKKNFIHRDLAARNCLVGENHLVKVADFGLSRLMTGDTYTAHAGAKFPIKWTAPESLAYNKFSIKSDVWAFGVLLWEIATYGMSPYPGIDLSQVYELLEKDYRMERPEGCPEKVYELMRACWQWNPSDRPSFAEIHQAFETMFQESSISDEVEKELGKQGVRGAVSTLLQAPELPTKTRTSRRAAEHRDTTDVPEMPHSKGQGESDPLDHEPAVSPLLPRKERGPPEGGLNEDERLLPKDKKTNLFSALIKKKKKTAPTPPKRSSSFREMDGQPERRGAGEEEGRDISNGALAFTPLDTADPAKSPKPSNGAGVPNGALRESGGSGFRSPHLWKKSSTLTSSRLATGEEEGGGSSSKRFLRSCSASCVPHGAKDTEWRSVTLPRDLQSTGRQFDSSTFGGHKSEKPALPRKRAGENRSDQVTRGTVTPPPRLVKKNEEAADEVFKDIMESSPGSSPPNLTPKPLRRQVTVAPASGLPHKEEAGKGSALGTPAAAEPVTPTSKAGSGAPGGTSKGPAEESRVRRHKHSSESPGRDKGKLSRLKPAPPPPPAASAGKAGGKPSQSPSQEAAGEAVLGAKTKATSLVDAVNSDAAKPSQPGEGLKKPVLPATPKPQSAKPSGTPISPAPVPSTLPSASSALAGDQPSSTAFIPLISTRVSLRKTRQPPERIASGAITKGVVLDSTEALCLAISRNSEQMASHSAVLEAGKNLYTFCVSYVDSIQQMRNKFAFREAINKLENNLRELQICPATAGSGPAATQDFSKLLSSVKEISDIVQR
Sequence of Fyn (P06241 whole entry): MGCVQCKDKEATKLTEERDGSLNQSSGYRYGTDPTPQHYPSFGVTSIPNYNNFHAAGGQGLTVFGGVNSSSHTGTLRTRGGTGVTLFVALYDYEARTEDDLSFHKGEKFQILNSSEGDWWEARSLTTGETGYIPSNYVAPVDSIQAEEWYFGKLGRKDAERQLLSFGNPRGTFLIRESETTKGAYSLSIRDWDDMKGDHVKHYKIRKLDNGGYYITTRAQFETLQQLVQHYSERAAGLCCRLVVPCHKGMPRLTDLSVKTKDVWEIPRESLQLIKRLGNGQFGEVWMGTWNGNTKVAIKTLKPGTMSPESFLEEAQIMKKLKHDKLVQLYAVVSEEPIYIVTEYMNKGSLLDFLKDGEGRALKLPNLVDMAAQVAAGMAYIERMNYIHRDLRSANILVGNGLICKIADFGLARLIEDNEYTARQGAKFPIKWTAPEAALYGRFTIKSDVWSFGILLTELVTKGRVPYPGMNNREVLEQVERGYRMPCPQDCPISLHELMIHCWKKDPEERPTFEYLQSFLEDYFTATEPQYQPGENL
Sequence of c-Src (P12931 whole entry): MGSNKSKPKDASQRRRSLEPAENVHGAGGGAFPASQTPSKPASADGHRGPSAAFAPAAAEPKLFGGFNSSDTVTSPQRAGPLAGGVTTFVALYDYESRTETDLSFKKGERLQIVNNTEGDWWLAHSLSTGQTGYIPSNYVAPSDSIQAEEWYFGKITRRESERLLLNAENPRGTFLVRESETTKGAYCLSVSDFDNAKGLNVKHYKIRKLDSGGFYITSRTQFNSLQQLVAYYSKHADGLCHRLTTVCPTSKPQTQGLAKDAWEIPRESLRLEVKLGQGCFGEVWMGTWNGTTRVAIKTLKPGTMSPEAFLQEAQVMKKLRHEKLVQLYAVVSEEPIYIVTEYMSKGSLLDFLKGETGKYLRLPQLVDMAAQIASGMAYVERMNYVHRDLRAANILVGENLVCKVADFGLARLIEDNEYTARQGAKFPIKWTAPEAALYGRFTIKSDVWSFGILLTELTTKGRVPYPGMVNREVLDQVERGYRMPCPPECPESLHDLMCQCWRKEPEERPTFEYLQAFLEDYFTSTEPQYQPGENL
Sequence of TrkB (Q16620 32-822): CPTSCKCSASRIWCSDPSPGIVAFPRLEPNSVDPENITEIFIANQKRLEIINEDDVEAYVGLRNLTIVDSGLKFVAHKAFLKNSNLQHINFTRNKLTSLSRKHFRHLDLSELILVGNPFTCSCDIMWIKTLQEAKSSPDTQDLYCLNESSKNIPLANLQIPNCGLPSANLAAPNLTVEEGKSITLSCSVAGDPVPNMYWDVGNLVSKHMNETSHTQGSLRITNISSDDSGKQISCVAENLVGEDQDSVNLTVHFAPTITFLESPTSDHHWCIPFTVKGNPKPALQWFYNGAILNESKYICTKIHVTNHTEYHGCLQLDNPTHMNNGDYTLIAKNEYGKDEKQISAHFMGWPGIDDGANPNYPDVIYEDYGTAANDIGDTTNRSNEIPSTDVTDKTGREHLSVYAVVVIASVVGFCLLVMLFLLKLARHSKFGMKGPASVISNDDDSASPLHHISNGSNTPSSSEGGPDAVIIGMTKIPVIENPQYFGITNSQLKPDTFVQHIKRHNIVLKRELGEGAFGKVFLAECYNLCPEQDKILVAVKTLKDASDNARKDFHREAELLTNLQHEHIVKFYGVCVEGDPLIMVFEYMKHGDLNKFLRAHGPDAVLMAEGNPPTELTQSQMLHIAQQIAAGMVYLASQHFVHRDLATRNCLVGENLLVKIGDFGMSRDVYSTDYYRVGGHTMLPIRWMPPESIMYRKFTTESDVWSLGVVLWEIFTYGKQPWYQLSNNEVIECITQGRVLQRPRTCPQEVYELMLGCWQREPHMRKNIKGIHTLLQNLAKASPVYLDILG

For orientation: IC50 means the point on the concentration scale where inhibition reaches its midpoint. Read a high IC50 as weaker potency. Consider `CNc1cc(O)c2c(c1)/C=C/C[C@H](O)[C@H](O)C(=O)/C=C\[C@@H](C)[C@H](C)OC2=O` [Compound 091], for which the tumor regression came to 100% in [1] (10 mg/kg i.v., for the first three weeks); 100% in data set [1] (20 mg/kg i.v., in all mice); 100% in [1] (30 mg/kg i.v., in all mice); 100% in data set [1] (40 mg/kg i.v., in all mice). In data set [1] (mice given 091), the “tumor status of mice at the end of the study” value is recorded as “tumor free”. In addition, the “brain/plasma AUC0-t ratio” value in [2] is 3.170. Besides, the IC50 in data set [3], in data set [4], in data set [5], in data set [6], in data set [7] and in data set [8] was < 214 nM each time. In addition, the MEK1 inhibitory activity entry in data set [9] (1 μmol/L ATP) is listed as “low nM activity”. The “MEK1 inhibitory activity, dependence on ATP” value in data set [9] (at a low concentration of ATP) was “more potent”.
